Assays:
KRas^WT = molecular target: T1, KRas^WT (Homo sapiens, UniProt P01116); assay: KRas binding assay (TR-FRET tracer displacement), KRas WT; details: for IC50: TR-FRET tracer displacement, KRas WT
T1 construct: Biotinylated KRas (corresponding to amino acids 1-169, produced at Accelegan Inc.); biotin (biotinylated); purchased Accelegan Inc

KRas^G12A = molecular target: T2, KRas^G12A (Homo sapiens, UniProt P01116, G12A); assay: KRas binding assay (TR-FRET tracer displacement), KRas G12A; details: for IC50: TR-FRET tracer displacement, KRas G12A
T2 construct: Biotinylated KRas (corresponding to amino acids 1-169, produced at Accelegan Inc.); biotin (biotinylated); purchased Accelegan Inc

KRas^G12C = molecular target: T3, KRas^G12C (Homo sapiens, UniProt P01116, G12C); assay: KRas binding assay (TR-FRET tracer displacement), KRas G12C; details: for IC50: TR-FRET tracer displacement, KRas G12C
T3 construct: Biotinylated KRas (corresponding to amino acids 1-169, produced at Accelegan Inc.); biotin (biotinylated); purchased Accelegan Inc

KRas^G12D = molecular target: T4, KRas^G12D (Homo sapiens, UniProt P01116, G12D); assay: KRas binding assay (TR-FRET tracer displacement), KRas G12D
T4 construct: Biotinylated KRas (corresponding to amino acids 1-169, produced at Accelegan Inc.); biotin (biotinylated); purchased Accelegan Inc

KRas^G12R = molecular target: T5, KRas^G12R (Homo sapiens, UniProt P01116, G12R); assay: KRas binding assay (TR-FRET tracer displacement), KRas G12R
T5 construct: Biotinylated KRas (corresponding to amino acids 1-169, produced at Accelegan Inc.); biotin (biotinylated); purchased Accelegan Inc

KRas^G12S = molecular target: T6, KRas^G12S (Homo sapiens, UniProt P01116, G12S); assay: KRas binding assay (TR-FRET tracer displacement), KRas G12S; details: for IC50: TR-FRET tracer displacement, KRas G12S
T6 construct: Biotinylated KRas (corresponding to amino acids 1-169, produced at Accelegan Inc.); biotin (biotinylated); purchased Accelegan Inc

KRas^G12V = molecular target: T7, KRas^G12V (Homo sapiens, UniProt P01116, G12V); assay: KRas binding assay (TR-FRET tracer displacement), KRas G12V
T7 construct: Biotinylated KRas (corresponding to amino acids 1-169, produced at Accelegan Inc.); biotin (biotinylated); purchased Accelegan Inc

KRas^G13D = molecular target: T8, KRas^G13D (Homo sapiens, UniProt P01116, G13D); assay: KRas binding assay (TR-FRET tracer displacement), KRas G13D; details: for IC50: TR-FRET tracer displacement, KRas G13D
T8 construct: Biotinylated KRas (corresponding to amino acids 1-169, produced at Accelegan Inc.); biotin (biotinylated); purchased Accelegan Inc

KRas^Q61H = molecular target: T9, KRas^Q61H (Homo sapiens, UniProt P01116, Q61H); assay: KRas binding assay (TR-FRET tracer displacement), KRas Q61H; details: for IC50: TR-FRET tracer displacement, KRas Q61H
T9 construct: Biotinylated KRas (corresponding to amino acids 1-169, produced at Accelegan Inc.); biotin (biotinylated); purchased Accelegan Inc

[1] = system: KRas-mediated phosphorylation of ERK in MKN1 cells; assay: Inhibition of KRas-mediated phosphorylation of ERK (Cisbio HTRF pERK), MKN1 cells; assay type: cell-based; details: Homo sapiens, MKN-1
Method in brief: (§1)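 Seeding density was 6,000 cells/well; medium RPMI, 10% FBS. Read-out by homogeneous time-resolved fluorescence (pERK) after 4 hours covered at room temperature.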

[2] = system: KRas-mediated phosphorylation of ERK in PSN1 cells; assay: Inhibition of KRas-mediated phosphorylation of ERK (Cisbio HTRF pERK), PSN1 cells; assay type: cell-based; details: Homo sapiens
Method in brief: as §1

[3] = system: KRas-mediated phosphorylation of ERK in AsPC-1 cells; assay: Inhibition of KRas-mediated phosphorylation of ERK (Cisbio HTRF pERK), AsPC-1 cells; assay type: cell-based; details: Homo sapiens, ASPC1, AsPC-1 cells; HTRF pERK
Method in brief: (§2)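 6,000 cells/well; cpd 10 uM top, 3-fold x10, 0.8% DMSO final; 3 hr incubation; Min ctrl Trametinib 0.2 uM; lysis 40 min 4° C shaking; d2 + Cryptate Ab mix, 2 hr RT; HTRF read.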

[4] = system: KRas-mediated phosphorylation of ERK in H727 cells; assay: Inhibition of KRas-mediated phosphorylation of ERK (Cisbio HTRF pERK), H727 cells; assay type: cell-based; details: Homo sapiens, NCI-H727, H727 cells; HTRF pERK
Method in brief: as §2

[5] = system: KRas-mediated phosphorylation of ERK in A549 cells; assay: Inhibition of KRas-mediated phosphorylation of ERK (Cisbio HTRF pERK), A549 cells; assay type: cell-based; details: Homo sapiens; for IC50: HTRF pERK; for inhibition at 0.1 µM: A549, 3 h, single point, 100 nM compound, 3 hrs
Method in brief: (§3)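 Phosphorylated ERK was quantified by HTRF using d2-conjugate and Cryptate antibodies added to lysates for 2 hrs at room temperature.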

[6] = system: KRas-mediated phosphorylation of ERK in H460 cells; assay: Inhibition of KRas-mediated phosphorylation of ERK (Cisbio HTRF pERK), H460 cells; assay type: cell-based; details: Homo sapiens; for IC50: NCI-H460, HTRF pERK; for inhibition at 0.1 µM: NCI-H460, 3 h, single point, 100 nM compound, 3 hrs
Method in brief: as §2

[7] = system: KRas-mediated phosphorylation of ERK in HCT116 cells; assay: Inhibition of KRas-mediated phosphorylation of ERK (Cisbio HTRF pERK), HCT116 cells; assay type: cell-based; details: Homo sapiens; for IC50: HCT-116, HTRF pERK; for inhibition at 0.1 µM: HCT-116, 3 h, single point, 100 nM compound, 3 hrs
Method in brief: as §3

[8] = system: KRas-mediated phosphorylation of ERK in H358 cells; assay: Inhibition of KRas-mediated phosphorylation of ERK (Cisbio HTRF pERK), H358 cells; assay type: cell-based; details: Homo sapiens; for IC50: NCI-H358, HTRF pERK; for inhibition at 0.1 µM: NCI-H358, 3 h, single point, 100 nM compound, 3 hrs
Method in brief: as §2

[9] = single point, 10 nM compound, TR-FRET

T4 sequence (P01116 1-169 isoform P01116-2 G12D): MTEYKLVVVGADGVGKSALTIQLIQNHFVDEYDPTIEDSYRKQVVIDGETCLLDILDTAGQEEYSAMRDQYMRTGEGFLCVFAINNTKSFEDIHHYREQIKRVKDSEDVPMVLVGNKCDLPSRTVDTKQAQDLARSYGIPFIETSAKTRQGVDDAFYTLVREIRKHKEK
T6 sequence (P01116 1-169 isoform P01116-2 G12S): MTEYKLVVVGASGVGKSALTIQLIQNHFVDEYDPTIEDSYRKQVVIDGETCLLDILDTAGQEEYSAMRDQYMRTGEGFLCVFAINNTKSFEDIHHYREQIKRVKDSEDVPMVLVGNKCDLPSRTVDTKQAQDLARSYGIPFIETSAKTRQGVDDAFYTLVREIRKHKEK
T1 sequence (P01116 1-169 isoform P01116-2): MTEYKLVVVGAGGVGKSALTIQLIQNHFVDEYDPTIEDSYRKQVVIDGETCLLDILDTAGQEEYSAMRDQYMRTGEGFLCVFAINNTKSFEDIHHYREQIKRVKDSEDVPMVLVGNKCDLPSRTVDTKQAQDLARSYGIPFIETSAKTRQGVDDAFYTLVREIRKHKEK
T5 sequence (P01116 1-169 isoform P01116-2 G12R): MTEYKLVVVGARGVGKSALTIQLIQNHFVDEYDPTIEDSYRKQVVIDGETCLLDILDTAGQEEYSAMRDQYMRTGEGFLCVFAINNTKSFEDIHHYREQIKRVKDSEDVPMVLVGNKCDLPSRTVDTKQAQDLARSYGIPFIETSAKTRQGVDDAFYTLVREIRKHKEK
T2 sequence (P01116 1-169 isoform P01116-2 G12A): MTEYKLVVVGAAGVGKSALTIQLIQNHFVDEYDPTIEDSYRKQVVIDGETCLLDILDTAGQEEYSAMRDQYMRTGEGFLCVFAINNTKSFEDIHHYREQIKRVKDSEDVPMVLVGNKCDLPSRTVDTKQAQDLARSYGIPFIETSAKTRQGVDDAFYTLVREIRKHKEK
T9 sequence (P01116 1-169 isoform P01116-2 Q61H): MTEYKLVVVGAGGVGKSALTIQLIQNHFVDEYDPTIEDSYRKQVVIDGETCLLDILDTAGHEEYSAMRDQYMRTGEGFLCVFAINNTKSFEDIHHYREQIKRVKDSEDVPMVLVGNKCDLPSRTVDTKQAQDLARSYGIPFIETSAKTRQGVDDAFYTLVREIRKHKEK
T7 sequence (P01116 1-169 isoform P01116-2 G12V): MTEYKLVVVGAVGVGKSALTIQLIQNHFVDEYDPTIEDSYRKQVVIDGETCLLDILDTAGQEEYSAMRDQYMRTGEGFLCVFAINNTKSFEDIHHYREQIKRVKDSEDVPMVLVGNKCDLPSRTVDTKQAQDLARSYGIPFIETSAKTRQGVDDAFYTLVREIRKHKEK
T8 sequence (P01116 1-169 isoform P01116-2 G13D): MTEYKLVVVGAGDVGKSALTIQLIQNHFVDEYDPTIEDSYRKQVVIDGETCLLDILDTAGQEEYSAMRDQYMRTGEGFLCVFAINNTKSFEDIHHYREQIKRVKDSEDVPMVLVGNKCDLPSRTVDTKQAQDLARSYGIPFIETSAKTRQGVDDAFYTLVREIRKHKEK
T3 sequence (P01116 1-169 isoform P01116-2 G12C): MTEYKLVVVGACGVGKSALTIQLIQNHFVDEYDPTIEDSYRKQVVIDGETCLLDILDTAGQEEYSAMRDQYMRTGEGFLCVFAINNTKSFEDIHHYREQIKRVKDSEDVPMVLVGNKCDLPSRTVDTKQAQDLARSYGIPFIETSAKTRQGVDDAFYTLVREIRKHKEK

C[C@@]1(O)CCCN(c2nc(OCC34CCCN3CCC4)nc3c(F)c(-c4c(C5CC5)c(Cl)cc5[nH]ncc45)ncc23)C1 [Example 876, (3R)-1-(7-(6-chloro-5-cyclopropyl-1H-indazol-4-yl)-8-fluoro-2-((tetrahydro-1H-pyrrolizin-7a(5H)-yl)methoxy)pyrido[4,3-d]pyrimidin-4-yl)-3-methylpiperidin-3-ol]
IC50 (KRas^WT): 17 nM | IC50 (KRas^G12A): 14 nM | IC50 (KRas^G12C): 9 nM | IC50 (KRas^G12D): 10 nM | IC50 (KRas^G12R): 22 nM | IC50 (KRas^G12S): 13 nM | IC50 (KRas^G12V): 11 nM | IC50 (KRas^G13D): 10 nM | IC50 (KRas^Q61H): 18 nM | IC50 [1]: 112 nM | IC50 [2]: > 10000 nM | IC50 [3]: 661 nM | IC50 [4]: 1560 nM | IC50 [5]: 1040 nM | IC50 [6]: 561 nM | IC50 [7]: 1130 nM | IC50 [8]: 234 nM

Oc1cc(-c2ncc3c(N4C[C@@H]5C[C@H](C4)[C@H](O)C5)nc(OC[C@@]45CCCN4C[C@H](F)C5)nc3c2F)c2ccccc2c1 [Example 737, (1R,5R,6R)-3-(8-fluoro-2-(((2R,7aS)-2-fluorohexahydro-1H-pyrrolizin-7a-yl)methoxy)-7-(3-hydroxynaphthalen-1-yl)pyrido[4,3-d]pyrimidin-4-yl)-3-azabicyclo[3.2.1]octan-6-ol]
IC50 (KRas^WT): 13 nM | inhibition at 0.01 µM (KRas^WT; [9]): 44% | IC50 (KRas^G12A): 10 nM | inhibition at 0.01 µM (KRas^G12A; [9]): 47% | IC50 (KRas^G12C): 10 nM | inhibition at 0.01 µM (KRas^G12C; [9]): 53% | IC50 (KRas^G12D): 13 nM | IC50 (KRas^G12R): 7 nM | IC50 (KRas^G12S): 8 nM | inhibition at 0.01 µM (KRas^G12S; [9]): 60% | IC50 (KRas^G12V): 5 nM | IC50 (KRas^G13D): 12 nM | inhibition at 0.01 µM (KRas^G13D; [9]): 53% | IC50 (KRas^Q61H): 14 nM | inhibition at 0.01 µM (KRas^Q61H; [9]): 46% | IC50 [1]: 9 nM | IC50 [2]: 7190 nM | IC50 [3]: 420 nM | IC50 [4]: 79 nM | inhibition at 0.1 µM [5]: 17% | inhibition at 0.1 µM [6]: 27% | inhibition at 0.1 µM [7]: 39% | inhibition at 0.1 µM [8]: 8%

CCc1cccc2cc3[nH]ncc3c(-c3ncc4c(N5CCCC6(C5)NC(=O)NC6=O)nc(OC[C@@]56CCCN5C[C@H](F)C6)nc4c3F)c12 (stereo partly drawn) [Example 768, 7-(7-(5-ethyl-1H-benzo[f]indazol-4-yl)-8-fluoro-2-(((2R,7aS)-2-fluorohexahydro-1H-pyrrolizin-7a-yl)methoxy)pyrido[4,3-d]pyrimidin-4-yl)-1,3,7-triazaspiro[4.5]decane-2,4-dione]
IC50 (KRas^WT): < 2 nM | IC50 (KRas^G12A): < 2 nM | IC50 (KRas^G12C): < 2 nM | IC50 (KRas^G12D): 3 nM | IC50 (KRas^G12R): < 2 nM | IC50 (KRas^G12S): < 2 nM | IC50 (KRas^G12V): < 2 nM | IC50 (KRas^G13D): < 2 nM | IC50 (KRas^Q61H): < 2 nM | IC50 [1]: 22 nM | IC50 [2]: > 10000 nM | IC50 [3]: 434 nM | IC50 [4]: 275 nM | inhibition at 0.1 µM [5]: 30% | IC50 [5]: 708 nM | inhibition at 0.1 µM [6]: 23% | IC50 [6]: 184 nM | inhibition at 0.1 µM [7]: 8% | IC50 [7]: 397 nM | inhibition at 0.1 µM [8]: 59% | IC50 [8]: 38 nM

Reference: US20260015350A1, “AZAQUINAZOLINE PAN-KRAS INHIBITORS” (Mirati Therapeutics, Inc., priority 2022, published 2026)
